Experiment: xn = mol fraction of the nth substance listed
Conditions: 100 kPa, Liquid; for mass density: Vibrating tube method; for speed of sound: Frequency=5 MHz, Pulse-echo method

OCCOCCOCCO [triethylene glycol] + O
Conditions | mass density [kg/m3] | speed of sound [m/s]
313.15 K, x1 = 0.8975 | 1107.54 | –
313.15 K, x1 = 0.9203 | 1107.65 | –
313.15 K, x1 = 0.9514 | 1107.8 | –
313.15 K, x1 = 0.9692 | 1107.89 | –
313.15 K, x1 = 1 | 1108.03 | –
318.15 K, x1 = 0.000584 | – | 1538.5
318.15 K, x1 = 0.002006 | – | 1542.9
318.15 K, x1 = 0.004375 | – | 1550
318.15 K, x1 = 0.01026 | – | 1566.6
318.15 K, x1 = 0.0107 | 1001.51 | –
318.15 K, x1 = 0.01483 | – | 1578.5
318.15 K, x1 = 0.02047 | 1010.75 | –
318.15 K, x1 = 0.0207 | – | 1592.6
318.15 K, x1 = 0.02817 | – | 1608.6
318.15 K, x1 = 0.0344 | – | 1620.5
318.15 K, x1 = 0.03972 | 1026.32 | –
318.15 K, x1 = 0.04361 | – | 1635.9
318.15 K, x1 = 0.04979 | 1033.27 | –
318.15 K, x1 = 0.05146 | – | 1647.1
318.15 K, x1 = 0.05903 | – | 1656.4
318.15 K, x1 = 0.06571 | – | 1663.4
318.15 K, x1 = 0.06996 | 1045.13 | –
318.15 K, x1 = 0.07299 | – | 1670
318.15 K, x1 = 0.08294 | – | 1677.4
318.15 K, x1 = 0.09126 | – | 1682.2
318.15 K, x1 = 0.09424 | 1056.41 | –
318.15 K, x1 = 0.09661 | – | 1684.8
318.15 K, x1 = 0.1018 | – | 1686.8
318.15 K, x1 = 0.1056 | – | 1688.1
318.15 K, x1 = 0.1135 | – | 1690.2
318.15 K, x1 = 0.1255 | – | 1692.2
318.15 K, x1 = 0.1394 | – | 1692.8
318.15 K, x1 = 0.1396 | – | 1692.8
318.15 K, x1 = 0.1432 | – | 1692.7
318.15 K, x1 = 0.1481 | 1073.27 | –
318.15 K, x1 = 0.1521 | – | 1692.1
318.15 K, x1 = 0.1731 | – | 1689
318.15 K, x1 = 0.1931 | – | 1684.5
318.15 K, x1 = 0.2006 | 1082.92 | –
318.15 K, x1 = 0.2076 | – | 1680.7
318.15 K, x1 = 0.2502 | 1088.64 | –
318.15 K, x1 = 0.2511 | – | 1667.7
318.15 K, x1 = 0.2988 | 1092.38 | –
318.15 K, x1 = 0.3044 | – | 1651.8
318.15 K, x1 = 0.3492 | 1095.09 | –
318.15 K, x1 = 0.3572 | – | 1637.7
318.15 K, x1 = 0.3925 | 1096.8 | –
318.15 K, x1 = 0.4142 | – | 1624.4
318.15 K, x1 = 0.4502 | 1098.53 | –
318.15 K, x1 = 0.4877 | 1099.4 | –
318.15 K, x1 = 0.4989 | – | 1607.6
318.15 K, x1 = 0.5004 | 1099.66 | –
318.15 K, x1 = 0.5739 | 1100.92 | –
318.15 K, x1 = 0.58 | 1101 | –
318.15 K, x1 = 0.6427 | – | 1585.5
318.15 K, x1 = 0.6465 | 1101.82 | –
318.15 K, x1 = 0.651 | 1101.87 | –
318.15 K, x1 = 0.7008 | 1102.35 | –
318.15 K, x1 = 0.7471 | 1102.73 | –
318.15 K, x1 = 0.7677 | 1102.88 | –
318.15 K, x1 = 0.7971 | – | 1571.3
318.15 K, x1 = 0.82 | 1103.22 | –
318.15 K, x1 = 0.8623 | 1103.46 | –
318.15 K, x1 = 0.8792 | 1103.55 | –
318.15 K, x1 = 0.8865 | – | 1565.1
318.15 K, x1 = 0.8975 | 1103.64 | –
318.15 K, x1 = 0.9203 | 1103.76 | –
318.15 K, x1 = 0.9514 | 1103.9 | –
318.15 K, x1 = 0.9641 | – | 1559.6
318.15 K, x1 = 0.9692 | 1103.99 | –
318.15 K, x1 = 1 | 1104.13 | 1554.7
323.15 K, x1 = 0.0107 | 999.177 | –
323.15 K, x1 = 0.02047 | 1008.26 | –
323.15 K, x1 = 0.03972 | 1023.56 | –
323.15 K, x1 = 0.04979 | 1030.37 | –
323.15 K, x1 = 0.06996 | 1041.99 | –
323.15 K, x1 = 0.09424 | 1053.04 | –
323.15 K, x1 = 0.1481 | 1069.57 | –
323.15 K, x1 = 0.2006 | 1079.07 | –
323.15 K, x1 = 0.2502 | 1084.73 | –
